Patent US20050130947A1, “Formulations for inhalation” (priority 2002, published 2005)

Experiments:
[1] = Pharmacokinetics after intra-tracheal dry powder dosing in the pig; type: in vivo; conditions: for AUC (0-inf): compound (I) AUC calculated with IV plasma half-life
Method: Serial blood samples were taken for up to 8 h following dosing.

[2] = system: ovalbumin sensitised Brown Norway rat eosinophilia model; test: Ovalbumin sensitised Brown Norway rat eosinophilia model; type: in vivo; conditions: single 30 μg intra-tracheal dose, suspension in saline, 30 min prior to ovalbumin challenge
Method: Pharmacological activity in vivo was assessed in an ovalbumin sensitised Brown Norway rat eosinophilia model. This model is designed to mimic allergen induced lung eosinophilia, a major component of lung inflammation in asthma.

[3] = system: rat model of thymus involution; test: Rat model of thymus involution; type: in vivo; conditions: 3 daily IT doses of 100 μg
[4] = Pharmacokinetics after intravenous and oral dosing in rats; conditions: rat, IV 0.1 mg/kg

CCC(=O)O[C@]1(C(=O)SCF)[C@H](C)C[C@H]2[C@@H]3C[C@H](F)C4=CC(=O)C=C[C@]4(C)[C@@]3(F)[C@@H](O)C[C@@]21C [Fluticasone propionate, 6α, 9α-Difluoro-17α-(1-oxopropoxy)-11β-hydroxy-16α-methyl-3-oxo-androsta-1,4-diene-17β-carbothioic acid S-fluoromethyl ester, reference compound]
Cmax ([1]; Pig 1, 1 mg intra-tracheal dry powder blend in lactose): 0.277 ng/mL | AUC (0-inf) ([1]; Pig 1, 1 mg intra-tracheal dry powder): 0.455 ng·h/mL | Cmax ([1]; Pig 2, 1 mg intra-tracheal dry powder blend in lactose): 0.218 ng/mL | AUC (0-inf) ([1]; Pig 2, 1 mg intra-tracheal dry powder): 0.495 ng·h/mL | time after dosing up to which quantifiable in plasma ([1]; anaesthetised pigs, 1 mg intra-tracheal, LLOQ 10 pg/mL compound (I), 20 pg/mL fluticasone propionate): up to 8 hours | inhibition of lung eosinophilia [2]: 41% | reduction of thymus weight [3]: 78% | plasma clearance [4]: 45.2 mL/min/kg
